Measured values: ChEMBL document CHEMBL6120986, “In silico inspired design of urea noscapine congeners as anticancer agents: Chemical synthesis and experimental evaluation using breast cancer cells and a xenograft mouse model” (Eur J Med Chem, 2025)

Tests used:
MCF7 = experiment: Antiproliferative activity against human MCF7 cells assessed as inhibition of cell proliferation incubated for 72 hrs by SRB assay; type: functional, cell-based; settings: MCF7, 72 h
MDA-MB-231 = experiment: Antiproliferative activity against human MDA-MB-231 cells assessed as inhibition of cell proliferation incubated for 72 hrs by SRB assay; type: functional, cell-based; settings: MDA-MB-231, 72 h
[1] = Cytotoxicty against HEK cells incubated for 72 hrs by SRB assay; type: toxicity, cell-based; settings: human

IC50 (MCF7) [µM]	IC50 (MDA-MB-231) [µM]	SMILES	IC50 at 72 h [1] [µM]
27.7	35.7	COc1ccc2c(c1OC)C(=O)O[C@@H]2[C@H]1c2c(c(NC(=O)Nc3c(Cl)cc(Cl)cc3Cl)c3c(c2OC)OCO3)CCN1C	293
32.7	35.2	COc1ccc2c(c1OC)C(=O)O[C@@H]2[C@H]1c2c(c(NC(=O)Nc3ccc(F)c(Cl)c3)c3c(c2OC)OCO3)CCN1C	285
37.9	48.5	COc1ccc2c(c1OC)C(=O)O[C@@H]2[C@H]1c2c(c(NC(=O)Nc3cccc(F)c3)c3c(c2OC)OCO3)CCN1C	292

More lines, now with the values behind:

SMILES	IC50 (MCF7) [µM]	IC50 (MDA-MB-231) [µM]	IC50 at 72 h [1] [µM]
COc1ccc2c(c1OC)C(=O)O[C@@H]2[C@H]1c2c(c(NC(=O)Nc3cccc(C(C)=O)c3)c3c(c2OC)OCO3)CCN1C	29.5	33.2	306
COc1cc(NC(=O)Nc2c3c(c(OC)c4c2OCO4)[C@H]([C@H]2OC(=O)c4c2ccc(OC)c4OC)N(C)CC3)cc(OC)c1OC	36.1	48.1	294
